Source: PMC4738305, “Metabolism and Disposition of Aditoprim in Swine, Broilers, Carp and Rats” (Scientific Reports, 2016)
Read-outs that look alike come from different tables or passages of the source.

How the values were obtained:
[1] = Concentration and elimination of ADP and its metabolites in liver, kidney, muscle, fat/skin after oral ^3H-ADP for 7 d; format: in vivo, carp; conditions: for concentration at 0.25 d / concentration at 1 d / concentration at 3 d / concentration at 7 d / concentration at 14 d / concentration at 21 d: carp, oral; for half-life: po
Method: (§1) A total of 36 animals from each species (swine n = 24) were randomly assigned to six equal treatment groups and administered a single daily dose of ^3 H-ADP at 5 mg/kg b. w. (0.1 Ci/g) through oral gavage for 7 consecutive days. All the animals were housed on the basis of their group in the cages or aquaria throughout the whole study period. A group of animals was slaughtered through exsanguination under diethyl ether inhalation of anesthesia in the period of 6 h, 1, 3, 7, 14, and 21 d after the administration. The blood samples were immediately collected into the heparinized tubes and was centrifuged at 1920 × g at 4 °C for 10 min to obtain the plasma. The tissues from the heart, liver, spleen, lung, kidney, craw (broilers), stomach, intestine, fat, skin, muscle, thymus, pancreas, bile, bladder, hair (scale for carp), genital gland, adrenal glands, swim bladder (carp), brain, lymph, and bursa (broilers) were carefully excised and collected. The tissues were thoroughly rinsed with the deionized water to remove the residuary blood, blotted to dryness, and finally to perform the homogenization. In order to avoid cross-contamination the dissecting instruments were washed during the tissue procurements. The blank tissues were collected in order to provide control matrices. The total radioactivity levels in each sample were determined through LSC. The samples extracted from the plasma, bile, and tissues of the liver, kidney, muscle, and fat/skin were analyzed through LC/MS-IT-TOF and v. ARC radiometric detection for metabolite profiling. The blank samples were used as control to determine the background radioactivity or the endogenous nondrug-related ions observed within respective matrices or their extracts.
(§2) The feces and tissues (2 g) were diluted with a mixture of methanol and chloroform (1:3, v:v; 2 mL/g homogenate). This procedure was carried out in a fume hood for the safety aspects. The pH value was adjusted to 9.0 with NH4OH. The mixture was vortexed and sonicated for 5 min and 10 min, respectively, and finally the samples were centrifuged at 7690 × g for 10 min. The supernatant was aspirated and then transferred into a new centrifuge tube. The obtained pellet was again subjected to the same process of vortex, ultrasonication, extraction, and centrifugation. The combined supernatant was concentrated under a stream of nitrogen in a water bath at 40 °C. The residue was reconstituted with 0.3 mL of methanol–water (1:9, v:v) before the injection into the LC-v. ARC/MS-IT-TOF system for analysis.
(§3) ADP and its metabolites in the prepared samples were determined with a v. ARC radiometric detector and a hybrid IT/TOF mass spectrometer connected to the HPLC system (Shimadzu Corp., Kyoto, Japan). The LC system was equipped with a solvent delivery pump (LC-20AD), an auto-sampler (SIL-20AC), a degasser (DGU-20 A 3), a photodiode array detector (SPD-M20A), a communication base module (CBM-20 A), and a column oven (CTO-20AC). The chromatographic separation was achieved by using an Agilent extend-C18 column (2.1 mm × 150 mm, 5 μm) with a gradient mobile phase of A (0.01% ammonia and 5 mM ammonium acetate in water) and B (methanol) at a flow rate of 0.2 mL/min. The column temperature was maintained at 35 °C. Various HPLC methods were performed because of the large number of different metabolites to be analyzed. For the porcine sample, method 1 started at 5% B and increased to 20% B over 35 min, then to 55% B by 60 min, followed by re-equilibration for another 10 min. For the remaining samples, method 2 started at 10% B and increased to 60% B over 30 min, subsequently was maintained at 60% B for an additional 10 min, and then changed to 90% B over 2 min and maintained for 2 min. Afterwards, a re-equilibration step (decreased to 10% B over 1 min and maintained at 10% B for additional 9 min) was followed. For each matrix, more than 98% of the radioactivity injected into the column was eluted during the running time of the gradient program. […]

[2] = as above; format: in vivo, rats; conditions: for half-life: po; for concentration at 0.25 d / concentration at 1 d / concentration at 3 d / concentration at 7 d / concentration at 14 d: oral
Method: as §1, §2, §3

[3] = carp kidney, after 5 mg/kg b. w. for 7 days, read-out: t1/2 of the individual compound (converted)
[4] = carp liver, after 5 mg/kg b. w. for 7 days, read-out: t1/2 of the individual compound (converted)
[5] = carp muscle, after 5 mg/kg b. w. for 7 days, read-out: t1/2 of the individual compound (converted)
[6] = carp skin, after 5 mg/kg b. w. for 7 days, read-out: t1/2 of the individual compound (converted)
[7] = tissues (liver, kidney, muscle, fat/skin), 5 mg/kg, carp tissues, read-out: t1/2 of the individual compound, range over tissues
[8] = rat kidney, after 5 mg/kg b. w. for 7 days, read-out: t1/2 of the individual compound (converted)
[9] = rat liver, after 5 mg/kg b. w. for 7 days, read-out: t1/2 of the individual compound (converted)
[10] = rat, tissues (liver, kidney, muscle, fat/skin), 5 mg/kg, rats tissues, read-out: t1/2 of the individual compound, range over tissues

## COc1cc(Cc2cnc(N)nc2N)cc(OC)c1N(C)C [A0, 2,4-Diamino-5-[4-(dimethylamino)-3,5-dimethoxybenzyl] pyrimidine]
[1]; carp liver, kidney, muscle, skin, over the sampling times
  share of the sample radioactivity in the detected tissues: more than 42%
[1]; kidney, 5 mg/kg b.w.
  concentration at 0.25 d: 38900 ± 8000 ng/g
  concentration at 1 d: 6470 ± 1250 ng/g
  concentration at 3 d: 3010 ± 550 ng/g
  concentration at 7 d: 1190 ± 80 ng/g
  concentration at 14 d: 680 ± 80 ng/g
  concentration at 21 d: 90 ± 20 ng/g
[1]; liver, 5 mg/kg b. w.
  concentration at 0.25 d: 13200 ± 3700 ng/g
  concentration at 1 d: 5750 ± 950 ng/g
  concentration at 3 d: 2370 ± 470 ng/g
  concentration at 7 d: 390 ± 100 ng/g
  concentration at 14 d: 260 ± 40 ng/g
  concentration at 21 d: 90 ± 10 ng/g
[1]; muscle, 5 mg/kg b.w.
  concentration at 0.25 d: 1960 ± 530 ng/g
  concentration at 1 d: 1690 ± 410 ng/g
  concentration at 3 d: 870 ± 180 ng/g
  concentration at 7 d: 410 ± 90 ng/g
  concentration at 14 d: 60 ± 10 ng/g
[1]; skin, 5 mg/kg b. w.
  concentration at 0.25 d: 3040 ± 520 ng/g
  concentration at 1 d: 2320 ± 670 ng/g
  concentration at 3 d: 1330 ± 150 ng/g
  concentration at 7 d: 800 ± 160 ng/g
  concentration at 14 d: 60 ± 10 ng/g
[1]; [3]
  half-life: 89.3 h
[1]; [4]
  half-life: 159 h
[1]; [5]
  half-life: 68.9 h
[1]; [6]
  half-life: 57.6 h
[1]; [7]
  half-life: 57.6 to 159 h
[2]; rat fat, after 5 mg/kg b. w. for 7 days, read-out: t1/2 of the individual compound (converted)
  half-life: 62.2 h
[2]; [8]
  half-life: 76.8 h
[2]; [9]
  half-life: 100 h
[2]; rat muscle, after 5 mg/kg b. w. for 7 days, read-out: t1/2 of the individual compound (converted)
  half-life: 70.8 h
[2]; rat, fat, 5 mg/kg b. w.
  concentration at 0.25 d: 290 ± 100 ng/g
  concentration at 1 d: 150 ± 30 ng/g
  concentration at 3 d: 80 ± 10 ng/g
  concentration at 7 d: 30 ng/g
[2]; rat, kidney, 5 mg/kg b.w.
  concentration at 0.25 d: 3800 ± 1550 ng/g
  concentration at 1 d: 1130 ± 430 ng/g
  concentration at 3 d: 590 ± 110 ng/g
  concentration at 7 d: 350 ± 80 ng/g
  concentration at 14 d: 60 ± 10 ng/g
[2]; rat, liver, 5 mg/kg b. w.
  concentration at 0.25 d: 6140 ± 1890 ng/g
  concentration at 1 d: 2830 ± 520 ng/g
  concentration at 3 d: 1020 ± 270 ng/g
  concentration at 7 d: 560 ± 120 ng/g
  concentration at 14 d: 170 ± 30 ng/g
[2]; rat, muscle, 5 mg/kg b.w.
  concentration at 0.25 d: 1020 ± 480 ng/g
  concentration at 1 d: 700 ± 210 ng/g
  concentration at 3 d: 380 ± 90 ng/g
  concentration at 7 d: 170 ± 40 ng/g
[2]; [10]
  half-life: 62.2 to 100 h
[2]; rats liver, kidney, muscle, fat, over the sampling times
  share of the sample radioactivity in the detected tissues: more than 42%

## CNc1c(OC)cc(Cc2cnc(N)nc2N)cc1OC [A1, N-monodesmethyl-ADP]
[1]; kidney, 5 mg/kg b.w.
  concentration at 0.25 d: 7990 ± 1650 ng/g
  concentration at 1 d: 1730 ± 330 ng/g
  concentration at 3 d: 820 ± 150 ng/g
  concentration at 7 d: 380 ± 30 ng/g
[1]; liver, 5 mg/kg b. w.
  concentration at 0.25 d: 1930 ± 250 ng/g
  concentration at 1 d: 770 ± 130 ng/g
  concentration at 3 d: 160 ± 30 ng/g
  concentration at 7 d: 20 ng/g
[1]; muscle, 5 mg/kg b.w.
  concentration at 0.25 d: 300 ± 80 ng/g
  concentration at 1 d: 270 ± 70 ng/g
  concentration at 3 d: 100 ± 20 ng/g
[1]; skin, 5 mg/kg b. w.
  concentration at 0.25 d: 550 ± 90 ng/g
  concentration at 1 d: 450 ± 130 ng/g
  concentration at 3 d: 140 ± 20 ng/g
  concentration at 7 d: 50 ± 10 ng/g
[1]; [3]
  half-life: 67.4 h
[1]; [4]
  half-life: 26.2 h
[1]; [5]
  half-life: 49.2 h
[1]; [6]
  half-life: 47.8 h
[1]; [7]
  half-life: 26.2 to 67.4 h
[2]; [8]
  half-life: 50.6 h
[2]; [9]
  half-life: 64.6 h
[2]; rat, fat, 5 mg/kg b. w.
  concentration at 0.25 d: 70 ± 20 ng/g
[2]; rat, kidney, 5 mg/kg b.w.
  concentration at 0.25 d: 2650 ± 970 ng/g
  concentration at 1 d: 320 ± 120 ng/g
  concentration at 3 d: 120 ± 20 ng/g
  concentration at 7 d: 40 ± 10 ng/g
[2]; rat, liver, 5 mg/kg b. w.
  concentration at 0.25 d: 1940 ± 580 ng/g
  concentration at 1 d: 390 ± 90 ng/g
  concentration at 3 d: 180 ± 40 ng/g
  concentration at 7 d: 80 ± 10 ng/g
[2]; rat, muscle, 5 mg/kg b.w.
  concentration at 0.25 d: 250 ± 100 ng/g
  concentration at 1 d: 140 ± 30 ng/g
[2]; [10]
  half-life: 50.6 to 64.6 h

## COc1cc(Cc2cnc(N)nc2N)cc(OC)c1N [A2, N-didesmethyl-ADP]
[1]; kidney, 5 mg/kg b.w.
  concentration at 0.25 d: 780 ± 160 ng/g
  concentration at 1 d: 60 ± 10 ng/g
[1]; liver, 5 mg/kg b. w.
  concentration at 0.25 d: 440 ± 60 ng/g
  concentration at 1 d: 240 ± 40 ng/g
[1]; skin, 5 mg/kg b. w.
  concentration at 0.25 d: 70 ± 10 ng/g
  concentration at 1 d: 50 ± 10 ng/g
[2]; [8]
  half-life: 16.8 h
[2]; [9]
  half-life: 38.6 h
[2]; rat, kidney, 5 mg/kg b.w.
  concentration at 0.25 d: 370 ± 130 ng/g
  concentration at 1 d: 120 ± 30 ng/g
  concentration at 3 d: 20 ng/g
[2]; rat, liver, 5 mg/kg b. w.
  concentration at 0.25 d: 230 ± 60 ng/g
  concentration at 1 d: 120 ± 20 ng/g
  concentration at 3 d: 60 ± 20 ng/g
[2]; rat, muscle, 5 mg/kg b.w.
  concentration at 0.25 d: 40 ± 10 ng/g
